# Laboratory results as given in US11987582B2, “Maleate salts of triazolopyrazine derivatives, compositions, methods of use, and processes of manufacturing the same” (ABION Inc, priority 2021, dated 2024).
# Like-named read-outs stand apart in the source and are kept apart here.
# Columns and labels:
# [1] = dynamic vapor sorption (DVS) analysis of hygroscopicity; format: physicochemical; conditions: humidity range below 80%, 25° C., in words
# Description: Differential scanning calorimetry (DSC) analysis was performed to confirm the thermal stability of the novel salts provided in the present disclosure, and dynamic vapor sorption (DVS) analysis was performed to confirm the hygroscopicity.
# The DVS analysis was performed to confirm the hygroscopicity of the salts by using a DVS-1 device, and was performed at a relative humidity of 40%, 95%, and 0% at 25° C. for 60 minutes.
# [2] = thermodynamic solubility in formulation vehicles (phosphate buffer pH 7.4 with excipients); format: physicochemical; conditions: for solubility at 24 h: pH 7.4, aqueous with cosolvent or surfactant or cyclodextrin, thermodynamic from solid
# Description: In view of developing a formulation suitable for parenteral administration, the quantitative solubility of Chemical Formula land the Chemical Formula 2 were determined in phosphate buffer pH 7.4, supplemented with solubility-enhancing excipients. The target concentration is 1-1.3 mg/mL.
# Based on the qualitative solubility result determined for the PBS formulation vehicle containing Transcutol (Gattefossé, France) and TPGS (tocopherol polyethylene glycol succinate), the quantitative solubility of the compound of Chemical Formula 1 and the compound of Chemical Formula 2 was determined in those vehicles to assess the maximum solubility in those vehicles. The thermodynamic solubility was then determined in PBS buffer containing Transcutol (50% and 10%) and TPGS (20% and 10%) and also in the formulation vehicles containing PEG 400 (50%, with and without presence of 2% DMSO). Suspensions of the compound of Chemical Formula 1 and the compound of Chemical Formula 2 were prepared in the selected vehicles with a compound of Chemical Formula 1 concentration of about 3.5-5 mg/mL. After incubation for 24 hours at room temperature, the solids and liquid phases were separated. The concentration of API in solution was determined by HPLC analysis. The results can be found in FIG. 6.
# [3] = long-term stability study, chemical purity by HPLC; format: physicochemical; conditions: for chemical degradation: up to 15 months, in words
# Description: (§1) The physical and chemical stability study was performed on the compounds of Chemical Formula 2 and Chemical Formula 1 (for reference purposes). The long-term stability study was conducted at defined temperatures and relative humidity levels (25° C./60% relative humidity (RH) and 40° C./75% RH). At regular intervals, a solid sample was analyzed by XRPD, TGMS and HPLC.
# The results of the chemical purity determination for the compounds of Chemical Formula 1 and Chemical Formula 2 after 1-, 3- and 15-month exposure to 25° C./60% RH and 40° C./75% RH is presented in FIGS. 4 and 5.
# [4] = pH-dependent solubility study; format: physicochemical
# [5] = PK parameters in plasma after single administration; format: in vivo, Wistar rats; conditions: for AUC(0-inf) / AUC(0-t) / Cmax / Tmax: Wistar, rat, plasma
# [6] = long-term stability study, water uptake by TGA; format: physicochemical
# Description: as §1
# [7] = PK parameters after bid (twice a day) administration; format: in vivo; conditions: for Cmax1 / Tmax1: after first daily dosing; for Cmax2 / Tmax2: after second daily dosing; for AUC / AUC(0-t): in vivo; for AUC: read-out: AUC(12-24 h)
# Excerpt: FIG. 10 and Table 4 show the PK properties of the compound of Chemical Formula 2 administered twice a day (bid).
# FIG. 11 and Table 5 show the PK properties of the compound of Chemical Formula 1 administered twice per day.
# [8] = tested on: lung cancer cell line EBC-1; assay: cancer cell proliferation inhibitory experiment (SRB); format: cell-based, human
# Description: The following exemplary experimental protocol was performed to test the activity of the maleate salt compounds described herein.
# An RPMI 1640 cell culture medium, fetal bovine serum (FBS) and trypsin were purchased from GIBCO Co., Ltd. (Grand Island, N.Y.), and sodium hydrogencarbonate, amphotericin B and gentamycin were used as signamic medical products. In addition, reagents such as sulforhodamine (SRB) B, Trisma Base, and trichloroacetic acid (TCA), which were reagents used in a cytotoxicity measurement experiment, were purchased from Sigma Chemical Co., Ltd. For MTS analysis, a Celltiter 96 Aqueous Non-Radioactive Cell Proliferation Assay product was purchased from Promega Co., Ltd. Further, a T-25 culture container used for cell culture, a 96-well plate and other disposable glass used for cell culture were obtained from Folkon (Lincoln Park, N.J.) products.
# A drug used in the experiment was diluted as an experimental medium to a desired concentration in the test, and the final dimethylsulfoxide concentration was 0.5% or less.
# Cancer cell lines used in the experiment were human-derived cancer cell lines, and a lung cancer cell line EBC-1. RPMI 1640 medium with 10% fetal bovine serum (FBS) was used and cultured in an incubator of 37° C. and 5% CO2 and subcultured once by 3 to 4 days.
# Specifically, after the culture with the compound of the present disclosure was terminated, the culture solution was removed, and a cold TCA solution added to each well. The cells were left at 4° C. for 1 hour to be fixed. The TCA solution was removed, and the cells were dried at room temperature, incubated with a solution obtained by dissolving 0.4% SRB in a 1% acetic acid solution, left at room temperature for 30 minutes, and then stained. Extra SRB which was not bound to the cells was washed with a 1% acetic acid solution, and the SRB was eluted by adding a […] tris buffer solution (trisma base; unbuffered) of pH 10.3 to 10.5 to the stained cells.
smiles,measurement,setting,value
CN1CCN(Cc2ccc(-c3cnc(N4CCOC(Cn5nnc6ncc(-c7cnn(C)c7)nc65)C4)nc3)cc2)CC1.O=C(O)/C=C\C(=O)O (stereo not shown) [Chemical Formula 2],mass loss due to change in humidity (DVS),[1],very low
same,solubility at 24 h,"[2]; PBS formulation vehicle with 50% Transcutol, PBS vehicle containing 50% Transcutol, 24 hours at room temperature",> 3500 µg/mL
same,solubility compared with Chemical Formula 1,"[2]; all the formulation vehicles tested, in words",higher than that of the compound of Chemical Formula 1
same,solubility at 24 h,"[2]; almost all vehicles, except for the vehicle with 10% Transcutol",> 1300 µg/mL
same,chemical purity greater than the free base form,[3]; 15 months at 40° C. and 75% relative humidity,at least 4.7%
same,chemical degradation,[3]; 25° C./60% RH,did not show significant chemical degradation
same,chemical degradation,[3]; 40° C./75% RH,remained chemically stable up to 15 months
same,less soluble than the free base form,[4]; gastric pH (FIG. 7),more than 50%
same,less soluble than the free base form,[4]; pH between 1 and 3,more than 75%
same,less soluble than the free base form,[4]; pH of about 1.2 in 0.05M gastric media,more than 75%
same,AUClast/Dose,[5]; 5 mg/kg IV,1630 kg·nM·h/mg
same,AUC∞/Dose,[5]; 5 mg/kg IV,1655 kg·nM·h/mg
same,Cl,[5]; 5 mg/kg IV,0.000606 mg/h/nM/kg
same,Vss,[5]; 5 mg/kg IV,0.00271 mg/nM/kg
same,Vz,[5]; 5 mg/kg IV,0.00259 mg/nM/kg
same,AUClast/Dose,[5]; 5 mg/kg PO,347 kg·nM·h/mg
same,AUC∞/Dose,[5]; 5 mg/kg PO,355 kg·nM·h/mg
same,F,[5]; 5 mg/kg PO,21.4%
same,AUClast/Dose,[5]; 20 mg/kg PO,341 kg·nM·h/mg
same,AUC∞/Dose,[5]; 20 mg/kg PO,346 kg·nM·h/mg
same,F,[5]; 20 mg/kg PO,20.9%
same,AUC(0-inf),[5]; 5 mg/kg IV,8.27 µM·h
same,AUC(0-t),[5]; 5 mg/kg IV,8.13 µM·h
same,AUC(0-inf),[5]; 5 mg/kg PO,1.77 µM·h
same,AUC(0-t),[5]; 5 mg/kg PO,1.73 µM·h
same,Cmax,[5]; 5 mg/kg PO,246 nM
same,Tmax,[5]; 5 mg/kg PO,2 to 4 h
same,AUC(0-inf),[5]; 20 mg/kg PO,6.93 µM·h
same,AUC(0-t),[5]; 20 mg/kg PO,6.82 µM·h
same,Cmax,[5]; 20 mg/kg PO,676 nM
same,Tmax,[5]; 20 mg/kg PO,2 to 4 h
same,water content compared to the free base form,"[6]; 15 months, 40 degrees centigrade, 75% relative humidity (FIG. 4), in words",nearly four times lower
same,water content lower than the free base form,[6]; about 15 months at 40° C. and 75% relative humidity,at least 22%
same,water uptake,"[6]; incubation for 15 months under the tested conditions, in words",no significant water uptake
same,AUC(0-12 h)/Dose,[7]; 5 mg/kg IV (10 mg/kg/day),1060 kg·nM·h/mg
same,AUC(12-24 h)/Dose,[7]; 5 mg/kg IV (10 mg/kg/day),1470 kg·nM·h/mg
same,AUClast/Dose,[7]; 5 mg/kg IV (10 mg/kg/day),1298 kg·nM·h/mg
same,Cl,[7]; 5 mg/kg IV (10 mg/kg/day),0.00086 mg/h/nM/kg
same,Vss,[7]; 5 mg/kg IV (10 mg/kg/day),0.00782 mg/nM/kg
same,Vz,[7]; 5 mg/kg IV (10 mg/kg/day),0.00283 mg/nM/kg
same,AUC(0-12 h)/Dose,[7]; 5 mg/kg PO (10 mg/kg/day),685 kg·nM·h/mg
same,AUC(12-24 h)/Dose,[7]; 5 mg/kg PO (10 mg/kg/day),798 kg·nM·h/mg
same,AUClast/Dose,[7]; 5 mg/kg PO (10 mg/kg/day),742 kg·nM·h/mg
same,F,[7]; 5 mg/kg PO (10 mg/kg/day),57.2%
same,Cmax1,[7]; 5 mg/kg PO (10 mg/kg/day),611 nM
same,Tmax1,[7]; 5 mg/kg PO (10 mg/kg/day),0.5-3$ h
same,Cmax2,[7]; 5 mg/kg PO (10 mg/kg/day),802 nM
same,Tmax2,[7]; 5 mg/kg PO (10 mg/kg/day),12.5-13$ h
same,AUC(0-12 h)/Dose,[7]; 20 mg/kg PO (40 mg/kg/day),612 kg·nM·h/mg
same,AUC(12-24 h)/Dose,[7]; 20 mg/kg PO (40 mg/kg/day),601 kg·nM·h/mg
same,AUClast/Dose,[7]; 20 mg/kg PO (40 mg/kg/day),607 kg·nM·h/mg
same,F,[7]; 20 mg/kg PO (40 mg/kg/day),46.8%
same,Cmax1,[7]; 20 mg/kg PO (40 mg/kg/day),1600 nM
same,Tmax1,[7]; 20 mg/kg PO (40 mg/kg/day),2-3$ h
same,Cmax2,[7]; 20 mg/kg PO (40 mg/kg/day),2120 nM
same,Tmax2,[7]; 20 mg/kg PO (40 mg/kg/day),12.5-14$ h
same,AUC,[7]; 5 mg/kg IV (10 mg/kg/day),7.34 µM·h
same,AUC,[7]; 5 mg/kg PO (10 mg/kg/day),3.99 µM·h
same,AUC,[7]; 20 mg/kg PO (40 mg/kg/day),12 µM·h
same,AUC(0-t),"[7]; iv, 5 mg/kg, 5 mg/kg IV (10 mg/kg/day), read-out: AUC(0-12 h)",5.32 µM·h
same,AUC(0-t),"[7]; iv, 5 mg/kg, 5 mg/kg IV (10 mg/kg/day), read-out: AUClast",13 µM·h
same,AUC(0-t),"[7]; po, 5 mg/kg, 5 mg/kg PO (10 mg/kg/day), read-out: AUC(0-12 h)",3.43 µM·h
same,AUC(0-t),"[7]; po, 5 mg/kg, 5 mg/kg PO (10 mg/kg/day), read-out: AUClast",7.42 µM·h
same,AUC(0-t),"[7]; po, 20 mg/kg, 20 mg/kg PO (40 mg/kg/day), read-out: AUC(0-12 h)",12.2 µM·h
same,AUC(0-t),"[7]; po, 20 mg/kg, 20 mg/kg PO (40 mg/kg/day), read-out: AUClast",24.3 µM·h
same,GI50,"[8]; Homo sapiens, EBC-1, EBC-1 cell line",14.2 nM
same,activity in inhibiting cancer cell growth compared to the compound of Chemical Formula 1,[8]; in words,improved activity in inhibiting cancer cell growth
